Measured values: patent publication US4703061A, “Gamma-aminobutyric acid derivatives, process for production thereof, and use thereof as medicaments” (priority 1984, dated 1987)
Counter-ions that a name gives are not always drawn.

What was measured:
[1] = system: locomotor activity of mice; assay: Effects on locomotor activity, wheel cage method; format: in vivo, ddY-strain male mice
Method: (§1) In Tests 1 to 4 given below, ddY-strain male mice (body weight 20-25 g) were used, and the experiments were carried out in a semi-soundproof, constant-temperature room kept at a temperature of 23±1° C. and a humidity of 55±2%. The mice were allowed to take feed and water freely.
Test 1: Effects on locomotor activity
The effects of the test compound on the locomotor activities of the mice were examined by using wheel cages (made by Kishimoto Ika). […] The mice were used in groups each consisting of 8 mice. The test compound was intraperitoneally administered to the mice in the doses indicated, and immediately then, the mice were put into the cages. The locomotor activities (the number of revolutions) were measured for 90 minutes at 15 minute intervals, and compared with that of the control group.

[2] = system: planar locomotor activity of mice; assay: Effects on planar locomotor activity, automex method; format: in vivo, ddY-strain male mice
Method: as §1
The effects of the test compound on planar locomotor activity of the mice were examined by using an automex activity meter (made by Columbus Company). […] The test compound was intraperitoneally administered to the mice in doses indicated. Immediately then, five mice were put into each of transparent plastic cages (27×17×17 cm), and placed on the automex activity meter. The motor activity for 30 minutes was measured at 5 minutes intervals, and compared with that of the control group.

[3] = system: motor activity enhanced by methamphetamine; assay: Antagonistic effect against methamphetamine (automex method); format: in vivo, ddY-strain male mice; conditions: for Motor activity (total number of counts): 500 mg/kg i.p. + methamphetamine 3 mg/kg s.c.
Method: as §1
Test 2: Antagonistic effect against methamphetamine (automex method)
Mice were used in 5-membered groups. Each of the test compounds was intraperitoneally administered to the mice in a predetermined dose, and immediately then, the mice were subcutaneously injected with methamphetamine in a dose of 3 mg/kg. The action of the test compounds on motor activity enhanced by methamphetamine was examined in accordance with the automex method given above.

[4] = system: motor activity induced by atropine; assay: Antagonistic effect against atropine (automex method); format: in vivo, ddY-strain male mice; conditions: 600 mg/kg i.p. + atropine 30 mg/kg s.c.
Method: as §1
Test 4: Antagonistic effect against atropine (automex method)
Each of the test compounds was intraperitoneally administered to mice divided into 6-membered groups, and immediately then, atropine was subcutaneously injected into the mice in a dose of 30 mg/kg. The effect of each test compound on the enhancement of motor activity induced by atropine was examined in accordance with the automex method.

[5] = system: cycloheximide-induced amnesia model; assay: Effects on CXM-induced amnesia (step-down retention test); format: in vivo, ddY-strain male mice; conditions: for Escape learning latency (mean ± S.E.) / Step-down latency (mean ± S.E.): retention test 24 hours
Method: The test animals used were ddY-strain male mice (body weight 30-35 g). The experiment was carried out indoors at about 20° C., and the mice were allowed to take feed and water freely. 2. Effects on memorized behaviors
A device comprised of a floor grid surrounded on four sides by acrylic glass walls each having a lateral dimension of 21 cm and a wooden platform, 4×4×4 cm in size, fixed centrally to the floor grid was placed in a wooden semi-soundproof box having a size of 21×21×40 cm with a 15W electric bulb suspended from its ceiling.
The floor grid consisted of stainless steel rods, 3 mm in diameter, arranged at intervals of 8 mm. An intermittent electric shock (1 Hz, 0.5 sec., 60 V DC) was applied to the grid by an electric impulse apparatus and an isolator.
A mouse was placed in a predetermined direction on the platform. Immediately after the mouse stepped down onto the floor grid (when the mouse's four limbs left the platform), an electric shock was applied to the floor grid, and the intermittent application of the electric shock was continued until the mouse climbed up the platform to escape from the electric shock. The time which elapsed until the mouse stepped down from the platform (SDL, step down latency) and the time which elapsed until the mouse escaped to the platform from the electric shock (ELL, escape learning latency) were measured.
By the same procedure as in the training test, a mouse was placed on the platform, and its step down latency (SDL) was measured. The cut-off time was 300 seconds.
After the mouse stepped down, or the cut-off time elapsed, the mouse was placed on the floor grid at a corner of the device with its head directed in a direction opposite to the platform. An electric shock was applied to the mouse and its escape learning latency (ELL) was measured.
Mice divided into groups each consisting of not less than 20 mice were subjected to the training test, and immediately then subcutaneously injected with CXM (150 mg/kg). Twenty-four hours later, the mice was subjected to the retention test.
Immediately after administration of CXM or application of ECS, a 0.9% normal saline solution of each of the test compounds was intraperitoneally administered to the mice. Separately, a 5% gum arabic solution of CXM was administered to the mice in a control group.

ddY-strain male mice [6] = assay: Toxicity test, intraperitoneal (LD50); conditions: 500 mg/kg and 1,000 mg/kg i.p.; result in words
Method: Calcium 4-(3,5-dihydroxy-3-methylpentylamide) butyrate was intraperitoneally administered in doses of 500 mg/kg and 1,000 mg/kg respectively to eight ddY-strain male mice (body weight 20 to 25 g).

ddY-strain male mice [7] = assay: Irwin's observation method (behavior, nervous, autonomic nervous and toxic symptoms); format: in vivo; conditions: 1,000 mg/kg or below, i.p.; vs control group
Text: These mice were also observed for changes in behavior, nervous symptoms, autonomic nervous symptoms, and toxic symptoms in accordance with the Irwin's observation method.

[8] = 500 mg/kg i.p., CXM 150 mg/kg s.c.
[9] = 1000 mg/kg i.p., CXM 150 mg/kg s.c.

CC(O)(CCO)CC(=O)NCCCC(=O)O (stereo not drawn) [MV-GABA-Ca salt, calcium 4-(3,5-dihydroxy-3-methylpentylamide) butyrate]
Motor activity (total number of revolutions per mouse) ([1]; 250 mg/kg i.p., 15 minutes): 201 revolutions per mouse
Motor activity (total number of revolutions per mouse) ([1]; 250 mg/kg i.p., 30 minutes): 406 revolutions per mouse
Motor activity (total number of revolutions per mouse) ([1]; 250 mg/kg i.p., 45 minutes): 560 revolutions per mouse
Motor activity (total number of revolutions per mouse) ([1]; 250 mg/kg i.p., 60 minutes): 727 revolutions per mouse
Motor activity (total number of revolutions per mouse) ([1]; 250 mg/kg i.p., 75 minutes): 865 revolutions per mouse
Motor activity (total number of revolutions per mouse) ([1]; 250 mg/kg i.p., 90 minutes): 916 revolutions per mouse
Motor activity (total number of revolutions per mouse) ([1]; 500 mg/kg i.p., 15 minutes): 132 revolutions per mouse
Motor activity (total number of revolutions per mouse) ([1]; 500 mg/kg i.p., 30 minutes): 289 revolutions per mouse
Motor activity (total number of revolutions per mouse) ([1]; 500 mg/kg i.p., 45 minutes): 448 revolutions per mouse
Motor activity (total number of revolutions per mouse) ([1]; 500 mg/kg i.p., 60 minutes): 615 revolutions per mouse
Motor activity (total number of revolutions per mouse) ([1]; 500 mg/kg i.p., 75 minutes): 826 revolutions per mouse
Motor activity (total number of revolutions per mouse) ([1]; 500 mg/kg i.p., 90 minutes): 1034 revolutions per mouse
Motor activity (total number of revolutions per mouse) ([1]; 1000 mg/kg i.p., 15 minutes): 76 revolutions per mouse
Motor activity (total number of revolutions per mouse) ([1]; 1000 mg/kg i.p., 30 minutes): 165 revolutions per mouse
Motor activity (total number of revolutions per mouse) ([1]; 1000 mg/kg i.p., 45 minutes): 265 revolutions per mouse
Motor activity (total number of revolutions per mouse) ([1]; 1000 mg/kg i.p., 60 minutes): 428 revolutions per mouse
Motor activity (total number of revolutions per mouse) ([1]; 1000 mg/kg i.p., 75 minutes): 639 revolutions per mouse
Motor activity (total number of revolutions per mouse) ([1]; 1000 mg/kg i.p., 90 minutes): 837 revolutions per mouse
Motor activity (total number of counts) ([2]; 500 mg/kg i.p., 5 minutes): 172 counts
Motor activity (total number of counts) ([2]; 500 mg/kg i.p., 10 minutes): 241 counts
Motor activity (total number of counts) ([2]; 500 mg/kg i.p., 15 minutes): 307 counts
Motor activity (total number of counts) ([2]; 500 mg/kg i.p., 20 minutes): 405 counts
Motor activity (total number of counts) ([2]; 500 mg/kg i.p., 25 minutes): 505 counts
Motor activity (total number of counts) ([2]; 500 mg/kg i.p., 30 minutes): 558 counts
Motor activity (total number of counts) ([2]; 1000 mg/kg i.p., 5 minutes): 91 counts
Motor activity (total number of counts) ([2]; 1000 mg/kg i.p., 10 minutes): 128 counts
Motor activity (total number of counts) ([2]; 1000 mg/kg i.p., 15 minutes): 156 counts
Motor activity (total number of counts) ([2]; 1000 mg/kg i.p., 20 minutes): 177 counts
Motor activity (total number of counts) ([2]; 1000 mg/kg i.p., 25 minutes): 189 counts
Motor activity (total number of counts) ([2]; 1000 mg/kg i.p., 30 minutes): 203 counts
Motor activity (total number of counts) ([3]; 5 minutes): 10 counts
Motor activity (total number of counts) ([3]; 10 minutes): 11 counts
Motor activity (total number of counts) ([3]; 15 minutes): 22 counts
Motor activity (total number of counts) ([3]; 20 minutes): 38 counts
Motor activity (total number of counts) ([3]; 25 minutes): 71 counts
Motor activity (total number of counts) ([3]; 30 minutes): 126 counts
antagonistic effect against the increase of motor activity induced by methamphetamine ([3]; 500 mg/kg, result in words): markedly inhibited the motor activity of mice enhanced by methamphetamine
Motor activity (total number of counts) ([4]; 5 minutes): 8 counts
Motor activity (total number of counts) ([4]; 10 minutes): 12 counts
Motor activity (total number of counts) ([4]; 15 minutes): 19 counts
Motor activity (total number of counts) ([4]; 20 minutes): 27 counts
Motor activity (total number of counts) ([4]; 25 minutes): 47 counts
Motor activity (total number of counts) ([4]; 30 minutes): 92 counts
shortening of SDL induced by CXM ([5]; 500 mg/kg and 1,000 mg/kg, result in words): significantly improved the shortening of SDL
Escape learning latency (mean ± S.E.) [5, 8]: 10.5 ± 0.6 s
Step-down latency (mean ± S.E.) [5, 8]: 120.5 ± 10.6 s
Escape learning latency (mean ± S.E.) [5, 9]: 7.5 ± 0.6 s
Step-down latency (mean ± S.E.) [5, 9]: 175.2 ± 16.1 s
Escape learning latency (mean ± S.E.) ([5]; 1000 mg/kg i.p., without CXM): 5.2 ± 0.6 s
Step-down latency (mean ± S.E.) ([5]; 1000 mg/kg i.p., without CXM): 260.5 ± 14.0 s
prolongation of ELL induced by CXM ([5]; 1,000 mg/kg, result in words): significantly improved the prolongation of ELL
memory activating action ([5]; without CXM, vs control group, result in words): did not show memory activating action
death (ddY-strain male mice [6]): no case of death
changes in behavior, nervous symptoms, autonomic nervous symptoms, and toxic symptoms (ddY-strain male mice [7]): no marked difference from the control group could be found
